This passage reports melting point results from US20040058956A1, “Pharmaceutical composition having an improved water solubility” (priority 2000, published 2004).

By melting point is commonly meant the temperature of the solid-liquid transition.

`OCC(O)Cc1nccn1CCCc1cccc(OCc2coc(/C=C/c3ccc(F)cc3F)n2)c1` (stereo not shown) [B27, 3-(1-{3-[3-({2-[(E)-2-(2,4-difluorophenyl)ethenyl]-1,3-oxazol-4-yl}methoxy)phenyl]propyl}1H-imidazol-2-yl)-1,2-propanediol] returned a melting point of 92 to 94 °C.

The compound `Cc1cccc(/C=C/c2nc(COc3ccc(CCCCn4ccnc4CCO)cc3)co2)c1` [B11, 2-[1-[4-[4-[[2-[(E)-2-(3-methylphenyl)ethenyl]-1,3-oxazol-4-yl]methoxy]phenyl]butyl]-1H-imidazol-2-yl]-1-ethanol] displayed a melting point of 109 to 111 °C.

Take `OCCc1nccn1CCCCc1ccc(OCc2coc(/C=C/c3ccc(F)cc3F)n2)cc1` [Reference Example B19, 2-[1-[4-[4-[[2-[(E)-2-(2,4-difluorophenyl)ethenyl]-1,3-oxazol-4-yl]methoxy]phenyl]butyl]-1H-imidazol-2-yl]-1-ethanol]: the melting point lay within 93 to 95 °C.

On to `OCC(O)Cc1nccn1CCCCc1ccc(OCc2coc(/C=C/c3ccc(F)cc3F)n2)cc1` (stereo not shown) [Reference Example B26, 3-(1-{4-[4-({2-[(E)-2-(2,4-difluorophenyl)ethenyl]-1,3-oxazol-4-yl}methoxy)phenyl]butyl}-1H-imidazol-2-yl)-1,2-propanediol], for which the melting point lay in the range of 126 to 128 °C.

The compound `Fc1ccc(/C=C/c2nc(COc3ccc(CCCCn4ccnn4)cc3)co2)c(F)c1` [B7, 1-{4-[4-({2-[(E)-2-(2,4-difluorophenyl)ethenyl]-1,3-oxazol-4-yl}methoxy)phenyl]butyl}-1H-1,2,3-triazole] registered a melting point of 115 to 117 °C.

`CCc1ccc(/C=C/c2nc(COc3ccc(CCCCn4ccnc4CCO)cc3)co2)cc1` [B13, 2-[1-[4-[4-[[2-[(E)-2-(4-ethylphenyl)ethenyl]-1,3-oxazol-4-yl]methoxy]phenyl]butyl]-1H-imidazol-2-yl]-1-ethanol]: the melting point fell in the range of 94 to 95 °C.

The compound `OCCc1nccn1CCCCc1ccc(OCc2coc(/C=C/c3ccc(Br)cc3)n2)cc1` [B16, 2-[1-[4-[4-[[2-[(E)-2-(4-bromophenyl)ethenyl]-1,3-oxazol-4-yl]methoxy]phenyl]butyl]-1H-imidazol-2-yl]-1-ethanol] showed a melting point of 149 to 150 °C.

For the compound `Cc1ccc(/C=C/c2nc(COc3ccc(CCCCn4ccnc4CCO)cc3)co2)cc1` [B10, 2-[1-[4-[4-[[2-[(E)-2-(4-methylphenyl)ethenyl]-1,3-oxazol-4-yl]methoxy]phenyl]butyl]-1H-imidazol-2-yl]-1-ethanol], the melting point is 108 to 109 °C.

As for `Fc1ccc(/C=C/c2nc(COc3ccc(CCCCn4ccnn4)cc3)co2)cc1` [Reference Example B2, 1-{4-[4-({2-[(E)-2-(4-fluorophenyl)ethenyl]-1,3-oxazol-4-yl}methoxy)phenyl]butyl}-1H-1,2,3-triazole], the melting point was 124 to 125 °C.

The compound `OCCc1nccn1CCCCc1ccc(OCc2coc(/C=C/c3ccc(Cl)cc3)n2)cc1` [B15, 2-[1-[4-[4-[[2-[(E)-2-(4-chlorophenyl)ethenyl]-1,3-oxazol-4-yl]methoxy]phenyl]butyl]-1H-imidazol-2-yl]-1-ethanol] returned a melting point of 127 to 128 °C.

For `Cc1ccccc1/C=C/c1nc(COc2ccc(CCCCn3ccnc3CCO)cc2)co1` [Reference Example B12, 2-[1-[4-[4-[[2-[(E)-2-(2-methylphenyl)ethenyl]-1,3-oxazol-4-yl]methoxy]phenyl]butyl]-1H-imidazol-2-yl]-1-ethanol], the melting point fell in the range of 91 to 93 °C.

As to `Fc1ccc(/C=C/c2nc(COc3cccc(CCCn4ccnn4)c3)co2)c(F)c1` [B8, 1-{3-[3-({2-[(E)-2-(2,4-difluorophenyl)ethenyl]-1,3-oxazol-4-yl}methoxy)phenyl]propyl}-1H-1,2,3-triazole], the melting point lay within 89 to 90 °C.

Consider `OCC(O)Cc1nccn1CCCCc1ccc(OCc2coc(/C=C/c3ccc(C(F)(F)F)cc3)n2)cc1` (stereo not shown) [B24, 3-[1-(4-{4-[(2-{(E)-2-{4-(trifluoromethyl)phenyl}ethenyl}-1,3-oxazol-4-yl)methoxy]phenyl}butyl]-1H-imidazol-2-yl]-1,2-propanediol], for which the melting point lay in the range of 142 to 143 °C.

Compound `OCCc1nccn1CCCc1ccc(OCc2coc(/C=C/c3ccc(F)cc3F)n2)cc1` [B20, 2-[1-[3-[4-[[2-[(E)-2-(2,4-difluorophenyl)ethenyl]-1,3-oxazol-4-yl]methoxy]phenyl]propyl]-1H-imidazol-2-yl]-1-ehtanol] registered a melting point of 94 to 96 °C.

For `OCC(O)Cc1nccn1CCCc1cccc(OCc2coc(/C=C/c3ccc(C(F)(F)F)cc3)n2)c1` (stereo not shown) [B25, 3-[1-(3-{3-[(2-{(E)-2-[4-(trifluoromethyl)phenyl]ethenyl}-1,3-oxazol-4-yl)methoxy]phenyl}propyl)-1H-imidazol-2-yl]-1,2-propanediol], the melting point was in the range of 102 to 104 °C.

`FC(F)(F)c1ccc(/C=C/c2nc(COc3ccc(CCCn4ccnn4)cc3)co2)cc1` [B5, 1-(3-{4-[(2-{(E)-2-[4-(trifluoromethyl)phenyl]ethenyl}-1,3-oxazol-4-yl)methoxy]phenyl}propyl)-1H-1,2,3-triazole] displayed a melting point of 157 to 158 °C.

With `Cc1cccc(/C=C/c2nc(COc3ccc(CCCCn4ccnc4CC(O)CO)cc3)co2)c1` (stereo not shown) [B22, 3-(1-{4-[4-({2-[(E)-2-(3-methylpheyl)ethenyl]-1,3-oxazol-4-yl}methoxy)phenyl]butyl}-1H-imidazol-2-yl)-1,2-propanediol], the melting point was 102 to 104 °C.

`OCC(O)Cc1nccn1CCCCc1ccc(OCc2coc(/C=C/c3c(F)cccc3F)n2)cc1` (stereo not shown) [B28, 3-[1-[4-[4-[[2-[(E)-2-(2,6-difluorophenyl)ethenyl]-1,3-oxazol-4-yl]methoxy]phenyl]butyl]-1H-imidazol-2-yl]-1,2-propanediol] registered a melting point of 123 to 125 °C.

As to `FC(F)(F)c1ccc(/C=C/c2nc(COc3cccc(CCCn4ccnn4)c3)co2)cc1` [Reference Example B6, 1-(3-{3-[(2-{(E)-2-[4-(trifluoromethyl)phenyl]ethenyl}-1,3-oxazol-4-yl)methoxy]phenyl}propyl)-1H-1,2,3-triazole], the melting point is 115 to 116 °C.

`OCCc1nccn1CCCCc1ccc(OCc2coc(/C=C/c3ccc(F)cc3)n2)cc1` [B14, 2-(1-{4-[4-({2-[(E)-2-(4-fluorophenyl)ethenyl]-1,3-oxazol-4-yl}methoxy)phenyl]butyl}-1H-imidazol-2-yl)-1-ethanol] showed a melting point of 130 to 132 °C.

Compound `Fc1ccc(/C=C/c2nc(COc3cccc(CCCn4ccnn4)c3)co2)cc1` [B3, 1-{3-[3-({2-[(E)-2-(4-fluorophenyl)ethenyl]-1,3-oxazol-4-yl}methoxy)phenyl]propyl}-1H-1,2,3-triazole] returned a melting point of 105 to 106 °C.

Regarding `OCC(O)Cc1nccn1CCCCc1ccc(OCc2coc(/C=C/c3ccc(F)cc3)n2)cc1` (stereo not shown) [B23, 3-(1-{4-[4-({2-[(E)-2-(4-fluorophenyl)ethenyl]-1,3-oxazol-4-yl}methoxy)phenyl]butyl}-1H-imidazol-2-yl)-1,2-propanediol], the melting point was 114 to 116 °C.
